In patent US20240285500A1, “HAIR GROWTH AGENT” (ADJUVANT HOLDINGS CO., LTD., priority 2021, published 2024):

Legend:
[1] = test system: VEGF gene expression in human dermal papilla cells; test: Evaluation of human dermal papilla cell VEGF gene expression (real-time PCR); type: cell-based; conditions: 72 hours
Method: Exemplary Test 1: Evaluation of Human Dermal Papilla Cell VEGF Gene Expression
The VEGF gene is expressed in dermal papilla cells, and contributes to expression of such effects as increase in hair shaft diameter and improving maximum hair shaft length and improving hair shaft elongation rate and hair shaft growth promotion at head hair, beard, eyebrows, and/or eyelashes. Human dermal papilla cells were therefore used, and evaluation was carried out with respect to increase in VEGF gene expression for the respective components.
Human dermal papilla cells (Catalog No. CA60205a; derived from person; Toyobo Co., Ltd. (Japan)) were purchased, testing and evaluation being carried out with maintenance and culture of cells being performed as described in the protocol. […]
A 24-well plate was seeded with human dermal papilla cells so as to obtain 6×10^3 thereof per well. […] The GAPDH gene was used as an internal standard, the amount of VEGF gene expression being calculated relative to the negative control group. […]

[2] = test system: vascular endothelial growth factor (VEGF) expression in human dermal papilla cells; conditions: cited from earlier work

Structure (SMILES): CCCCCCCCCCCCCC[C@@H](O)[C@@H](O)[C@@H](N)CO [Working Example 1, phytosphingosine]
- change in amount of expression of the VEGF gene as compared with the control group ([1]; vs control group at which nothing had been added, GAPDH internal standard, FIG. 1): increase in dosage-dependent fashion in the amount of expression of the VEGF gene

Structure (SMILES): Nc1ncnc2c1ncn2[C@@H]1O[C@H](CO)[C@@H](O)[C@H]1O [adenosine]
- expression of vascular endothelial growth factor (VEGF) [2]: promotes expression of vascular endothelial growth factor (VEGF)

Structure (SMILES): CCCCCCCCCCCCCC[C@@H](O)[C@@H](O)[C@@H](N)CO [phytosphingosine]
- amount of expression of the VEGF gene compared with Comparative Example 1 ([1]; increased amount of phytosphingosine vs Comparative Example 1, FIG. 1): significantly greater
